Consider 23 compounds from ChEMBL document CHEMBL3397009, “Synthesis and biological evaluation of aryl isoxazole derivatives as metabotropic glutamate receptor 1 antagonists: a potential treatment for neuropathic pain” (Bioorg Med Chem Lett, 2015).

Molecules are shown by their SMILES. Calls of active or inactive are those of the source.

For series [1], the target named is Metabotropic glutamate receptor 1 (Homo sapiens) (UniProt Q13255). The series can be described thus: Antagonist activity against human mGluR1 expressed in HEK cells assessed as inhibition of L-glutamate-induced intracellular calcium levels at 10 uM after 18 hrs. In kind it is functional, cell-based. The following applies: HEK293. For orientation: Calcium flux is commonly read through the fluorescence of an indicator in the cells.
Sequence of Metabotropic glutamate receptor 1 (Homo sapiens) (Q13255 19-1194 limits assumed): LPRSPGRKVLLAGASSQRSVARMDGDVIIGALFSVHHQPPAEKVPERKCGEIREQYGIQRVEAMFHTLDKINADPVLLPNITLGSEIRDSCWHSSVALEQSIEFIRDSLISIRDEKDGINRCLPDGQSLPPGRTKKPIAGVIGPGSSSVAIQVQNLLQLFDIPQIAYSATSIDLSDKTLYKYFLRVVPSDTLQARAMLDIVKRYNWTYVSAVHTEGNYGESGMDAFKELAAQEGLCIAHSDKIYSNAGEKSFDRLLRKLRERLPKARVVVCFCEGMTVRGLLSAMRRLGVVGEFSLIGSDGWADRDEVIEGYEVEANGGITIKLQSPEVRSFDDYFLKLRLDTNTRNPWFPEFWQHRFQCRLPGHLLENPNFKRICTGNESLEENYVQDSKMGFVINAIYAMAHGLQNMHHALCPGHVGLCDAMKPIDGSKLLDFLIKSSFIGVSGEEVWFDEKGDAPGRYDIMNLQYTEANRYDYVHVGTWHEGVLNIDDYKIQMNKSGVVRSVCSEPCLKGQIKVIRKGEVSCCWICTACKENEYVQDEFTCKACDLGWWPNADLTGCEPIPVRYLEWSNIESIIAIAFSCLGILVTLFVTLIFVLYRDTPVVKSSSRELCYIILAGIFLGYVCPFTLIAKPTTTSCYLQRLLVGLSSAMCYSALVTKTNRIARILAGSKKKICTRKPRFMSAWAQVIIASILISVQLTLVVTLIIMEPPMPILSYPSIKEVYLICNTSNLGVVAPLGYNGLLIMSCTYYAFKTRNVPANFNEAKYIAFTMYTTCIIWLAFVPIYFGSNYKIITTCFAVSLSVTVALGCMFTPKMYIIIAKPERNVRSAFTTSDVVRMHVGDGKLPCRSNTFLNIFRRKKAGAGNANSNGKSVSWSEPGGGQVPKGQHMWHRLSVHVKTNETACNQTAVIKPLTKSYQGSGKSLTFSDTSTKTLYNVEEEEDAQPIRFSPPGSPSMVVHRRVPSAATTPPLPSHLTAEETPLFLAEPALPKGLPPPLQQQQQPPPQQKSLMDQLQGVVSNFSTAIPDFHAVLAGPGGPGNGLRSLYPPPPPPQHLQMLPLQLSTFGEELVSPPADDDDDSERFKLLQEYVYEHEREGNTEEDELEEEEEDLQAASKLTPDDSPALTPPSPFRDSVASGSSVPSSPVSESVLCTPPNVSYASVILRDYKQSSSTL

For series [2] the target is unchanged. Put plainly: Antagonist activity against human mGluR1 expressed in HEK cells assessed as inhibition of L-glutamate-induced intracellular calcium levels at 1 uM after 18 hrs. The format is functional, cell-based. The following applies: HEK293.
In series [3] the target is Metabotropic glutamate receptor 5 (Homo sapiens) (UniProt P41594). The series can be described thus: Antagonist activity against human mGluR5 expressed in HEK cells assessed as inhibition of L-glutamate-induced intracellular calcium levels at 1 uM after 18 hrs. In kind it is functional, cell-based. The following applies: HEK293.
Sequence of Metabotropic glutamate receptor 5 (Homo sapiens) (P41594 21-1212 limits assumed): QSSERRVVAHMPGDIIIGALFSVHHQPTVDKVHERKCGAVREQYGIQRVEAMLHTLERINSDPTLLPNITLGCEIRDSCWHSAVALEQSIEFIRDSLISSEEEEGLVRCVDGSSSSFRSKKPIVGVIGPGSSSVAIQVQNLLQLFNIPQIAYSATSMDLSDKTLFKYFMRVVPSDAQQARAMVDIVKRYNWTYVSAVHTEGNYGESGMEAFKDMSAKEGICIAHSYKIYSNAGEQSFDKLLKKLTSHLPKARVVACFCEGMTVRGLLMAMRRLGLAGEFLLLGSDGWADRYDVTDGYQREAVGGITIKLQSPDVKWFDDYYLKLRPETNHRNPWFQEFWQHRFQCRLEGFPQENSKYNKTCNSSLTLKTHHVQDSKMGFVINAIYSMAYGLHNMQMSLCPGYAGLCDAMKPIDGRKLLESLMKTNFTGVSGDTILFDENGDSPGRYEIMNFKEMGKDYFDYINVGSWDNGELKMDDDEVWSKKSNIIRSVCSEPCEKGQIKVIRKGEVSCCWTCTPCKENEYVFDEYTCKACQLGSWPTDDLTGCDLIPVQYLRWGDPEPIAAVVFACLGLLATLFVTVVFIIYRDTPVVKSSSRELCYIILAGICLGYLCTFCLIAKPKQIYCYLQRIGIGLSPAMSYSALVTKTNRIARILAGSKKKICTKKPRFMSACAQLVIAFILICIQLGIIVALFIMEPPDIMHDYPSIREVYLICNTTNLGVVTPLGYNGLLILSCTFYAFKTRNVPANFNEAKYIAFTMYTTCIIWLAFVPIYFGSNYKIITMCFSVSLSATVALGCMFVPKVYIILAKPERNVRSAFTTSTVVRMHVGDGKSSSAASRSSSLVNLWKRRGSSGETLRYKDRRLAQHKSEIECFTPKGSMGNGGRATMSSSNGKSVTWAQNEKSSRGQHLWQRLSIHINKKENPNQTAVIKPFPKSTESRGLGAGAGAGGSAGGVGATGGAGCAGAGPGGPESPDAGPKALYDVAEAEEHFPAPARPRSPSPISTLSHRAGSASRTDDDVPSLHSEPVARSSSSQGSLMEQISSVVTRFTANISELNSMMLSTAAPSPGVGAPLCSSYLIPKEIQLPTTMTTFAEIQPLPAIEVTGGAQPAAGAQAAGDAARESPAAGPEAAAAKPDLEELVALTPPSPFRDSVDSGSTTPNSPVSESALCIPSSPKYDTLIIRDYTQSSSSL
Series [4] shares this target. Put plainly: Antagonist activity against human mGluR5 expressed in HEK cells assessed as inhibition of L-glutamate-induced intracellular calcium levels at 10 uM after 18 hrs. The format is functional, cell-based. The following applies: HEK293.
The target in another series is CYP3A4 (Homo sapiens, UniProt P08684). Put plainly: Inhibition of CYP3A4 (unknown origin) assessed as remaining enzyme activity at 10 uM. In kind it is ADME. The note with it: read-out: Activity.
Sequence of CYP3A4 (P08684 whole entry): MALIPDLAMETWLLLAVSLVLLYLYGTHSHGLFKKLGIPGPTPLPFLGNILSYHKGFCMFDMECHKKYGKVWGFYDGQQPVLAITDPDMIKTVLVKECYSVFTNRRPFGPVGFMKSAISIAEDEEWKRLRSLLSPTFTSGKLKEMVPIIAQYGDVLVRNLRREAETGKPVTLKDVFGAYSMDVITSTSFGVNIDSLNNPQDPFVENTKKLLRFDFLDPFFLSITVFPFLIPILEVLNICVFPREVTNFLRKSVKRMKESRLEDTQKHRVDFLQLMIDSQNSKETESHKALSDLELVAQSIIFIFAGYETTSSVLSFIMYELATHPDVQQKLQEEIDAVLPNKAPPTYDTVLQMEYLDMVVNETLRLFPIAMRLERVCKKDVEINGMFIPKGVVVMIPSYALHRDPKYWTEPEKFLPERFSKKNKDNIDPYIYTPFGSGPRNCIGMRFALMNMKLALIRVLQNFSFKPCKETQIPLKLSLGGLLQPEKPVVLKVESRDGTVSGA
A further series deals with CYP2C9 (Homo sapiens, UniProt P11712). Put plainly: Inhibition of CYP2C9 (unknown origin) assessed as remaining enzyme activity at 10 uM. The following applies: read-out: Activity. The format is ADME.
Sequence of CYP2C9 (P11712 whole entry): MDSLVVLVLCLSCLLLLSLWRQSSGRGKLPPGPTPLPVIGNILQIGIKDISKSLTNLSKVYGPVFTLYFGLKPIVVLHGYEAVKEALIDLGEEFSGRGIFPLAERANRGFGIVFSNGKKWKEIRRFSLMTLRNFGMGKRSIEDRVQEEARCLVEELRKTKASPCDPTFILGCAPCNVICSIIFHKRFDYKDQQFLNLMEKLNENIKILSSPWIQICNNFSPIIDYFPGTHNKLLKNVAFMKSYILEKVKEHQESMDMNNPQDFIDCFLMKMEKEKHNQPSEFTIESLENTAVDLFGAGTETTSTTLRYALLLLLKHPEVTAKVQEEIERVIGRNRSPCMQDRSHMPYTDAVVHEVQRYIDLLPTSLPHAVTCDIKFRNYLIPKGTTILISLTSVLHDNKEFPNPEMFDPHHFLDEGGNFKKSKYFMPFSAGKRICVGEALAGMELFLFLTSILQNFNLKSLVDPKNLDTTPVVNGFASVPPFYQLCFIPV
The target of a further series is CYP2D6 (Homo sapiens, UniProt P10635). Put plainly: Inhibition of CYP2D6 (unknown origin) assessed as remaining enzyme activity at 10 uM. The format is ADME. The following applies: read-out: Activity.
Sequence of CYP2D6 (P10635 whole entry): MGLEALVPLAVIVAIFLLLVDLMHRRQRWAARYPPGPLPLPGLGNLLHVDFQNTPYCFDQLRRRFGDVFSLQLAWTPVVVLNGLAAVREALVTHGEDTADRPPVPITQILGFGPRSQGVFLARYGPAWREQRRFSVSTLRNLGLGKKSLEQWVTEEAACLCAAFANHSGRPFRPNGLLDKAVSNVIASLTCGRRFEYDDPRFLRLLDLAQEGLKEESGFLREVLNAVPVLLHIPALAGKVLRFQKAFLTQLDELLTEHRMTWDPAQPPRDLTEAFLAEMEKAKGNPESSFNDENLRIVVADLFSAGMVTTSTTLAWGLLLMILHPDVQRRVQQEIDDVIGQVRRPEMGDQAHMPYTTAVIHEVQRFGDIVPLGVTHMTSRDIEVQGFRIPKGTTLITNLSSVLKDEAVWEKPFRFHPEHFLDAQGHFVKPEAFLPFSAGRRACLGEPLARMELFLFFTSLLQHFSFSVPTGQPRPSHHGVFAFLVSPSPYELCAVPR
Series [5] concerns Rattus norvegicus. The series can be described thus: Analgesic activity in rat model of spinal nerve ligation-induced neuropathic pain assessed as reduction in cold allodynia by measuring paw withdrawal in response to acetone application at 100 mg/kg, po administered on day 14 after ligation surgery and measured 3 hrs post dose. The format is functional, organism-based. On the set-up: dose 100 mg/kg.

Another series addresses T1, CYP1A2 (Homo sapiens, UniProt P05177).
T1 sequence (P05177 whole entry): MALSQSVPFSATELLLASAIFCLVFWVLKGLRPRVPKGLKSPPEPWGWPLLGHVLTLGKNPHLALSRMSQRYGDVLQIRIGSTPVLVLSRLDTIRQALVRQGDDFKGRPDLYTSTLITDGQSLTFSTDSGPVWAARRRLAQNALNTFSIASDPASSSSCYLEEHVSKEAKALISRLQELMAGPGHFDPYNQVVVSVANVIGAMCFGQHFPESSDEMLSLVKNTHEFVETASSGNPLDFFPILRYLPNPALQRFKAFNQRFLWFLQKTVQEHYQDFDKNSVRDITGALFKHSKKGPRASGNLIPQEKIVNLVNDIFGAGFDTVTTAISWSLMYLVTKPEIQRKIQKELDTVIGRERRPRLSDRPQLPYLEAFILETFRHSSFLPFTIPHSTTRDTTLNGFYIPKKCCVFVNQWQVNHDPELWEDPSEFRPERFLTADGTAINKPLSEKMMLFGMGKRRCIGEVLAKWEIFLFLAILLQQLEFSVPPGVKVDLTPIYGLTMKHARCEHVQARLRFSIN
The series can be described thus: Inhibition of CYP1A2 (unknown origin) assessed as remaining enzyme activity at 10 uM. In kind it is ADME. The following applies: read-out: Activity.

For another series, the target named is CYP2C19 (Homo sapiens, UniProt P33261). Put plainly: Inhibition of CYP2C19 (unknown origin) assessed as remaining enzyme activity at 10 uM. The format is ADME. The note with it: read-out: Activity.
Sequence of CYP2C19 (P33261 whole entry): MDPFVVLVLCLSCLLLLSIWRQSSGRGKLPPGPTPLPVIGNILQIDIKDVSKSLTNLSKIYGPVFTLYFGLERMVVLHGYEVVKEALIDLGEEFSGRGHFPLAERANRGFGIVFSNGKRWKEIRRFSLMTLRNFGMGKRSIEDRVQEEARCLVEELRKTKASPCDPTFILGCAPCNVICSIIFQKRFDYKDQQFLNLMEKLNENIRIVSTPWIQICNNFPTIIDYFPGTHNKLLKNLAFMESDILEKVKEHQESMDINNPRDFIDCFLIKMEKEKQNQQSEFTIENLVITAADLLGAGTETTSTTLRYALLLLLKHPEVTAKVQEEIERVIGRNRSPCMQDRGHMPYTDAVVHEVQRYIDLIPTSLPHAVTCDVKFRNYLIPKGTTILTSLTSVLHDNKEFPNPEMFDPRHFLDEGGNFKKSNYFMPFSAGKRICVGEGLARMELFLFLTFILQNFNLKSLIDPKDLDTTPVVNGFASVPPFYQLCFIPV
Series [6] relates to Rattus norvegicus. Put plainly: Analgesic activity in rat model of spinal nerve ligation-induced neuropathic pain assessed as reduction in mechanical threshold for paw withdrawal at 100 mg/kg, po administered on day 14 after ligation surgery and measured 3 hrs post dose by Von Frey filaments based method. In kind it is functional, organism-based. The arrangement: dose 100 mg/kg.

Series [7] addresses Voltage-gated inwardly rectifying potassium channel KCNH2 (Homo sapiens, UniProt Q12809). Put plainly: Inhibition of human ERG.

Regarding `COc1ccc(-c2noc(-c3ccc4c(c3)N(C(C)C)C4=O)c2C)cc1`, the figures for the inhibition in series [1] and in [2] were 13.7% and 9.68%, respectively.

As for `Cc1c(-c2ccc(F)cc2)noc1-c1ccc2c(c1)CN(C(C)C)C2=O`, the inhibition in [3] worked out at 8.16%; in [1], 62.8%; in [2] it was 38.4%; in series [4], 18.7%.

In the case of `Cc1ccc(-c2cc(-c3ccc4c(c3)CN(C(C)C)C4=O)on2)cn1`, the inhibition in [3] amounted to 14%; in [1], 62.6%; in series [2], 4.53%; in series [4], 34.4%.

Consider `Cc1ccc(-c2cc(-c3ccc4c(c3)CN(C(C)C)C4=O)on2)cc1`, for which the inhibition worked out at 21.8% in series [3], 25.1% in series [1], 37.4% in series [2] and 15% in [4].

With `CC(C)N1C(=O)c2ccc(-c3cc(-c4ccc(Cl)nc4)no3)cc21`, the inhibition was determined as 16.1% in [3], 7.77% in series [1], 12.3% in [2] and 10.1% in series [4].

As to `COc1ccc(-c2cc(-c3ccc4c(c3)CN(C(C)C)C4=O)on2)cc1`, the inhibition was found to be 15.4% in series [3], 35.1% in series [1], 41% in series [2] and 15.1% in series [4].

As for `Cc1c(-c2ccc(Cl)cc2)noc1-c1ccc2c(c1)N(C(C)C)C2=O`, the inhibition worked out at 9.46% in [3], 49.1% in series [1], 20.3% in series [2] and 28.7% in [4].

Take `COc1ccc(-c2cc(-c3ccc4c(c3)CN(C(C)C)C4=O)on2)cn1`: the inhibition in series [3] was 5.29%; in [1], 59.6%; in [2], 16.6%; in series [4], 29.2%. Besides, the activity at 10 µM at CYP3A4 came to 95.6%; at CYP2C9, 91.8%; at CYP2D6, 87.5%; on CYP1A2, 90.7%; at CYP2C19, 85.9%. In addition, the Activity result in the series on Rattus norvegicus [5] and in the series on Rattus norvegicus [6] was “Active” each time. The IC50 in series [7] stood at 12 µM.

Regarding `Cc1c(-c2ccc(Cl)cc2)noc1-c1ccc2c(c1)CN(C(C)C)C2=O`, the inhibition in [3] came to 11.7%; in [1] it was 61.6%; in series [2], 30.7%; in [4], 23.4%.

For `CC(C)N1Cc2cc(-c3cc(-c4cccnc4F)no3)ccc2C1=O`, the results for the inhibition in series [1] and in series [2] were 42.3% and 23.4%, respectively.

As to `CC(C)N1Cc2cc(-c3cc(-c4ccc(Cl)nc4)no3)ccc2C1=O`, the inhibition was determined as 22.7% in series [3], 47.1% in [1], 45.4% in series [2] and 36.5% in series [4]. Moreover, the activity at 10 µM at CYP3A4 was found to be 94.5%; on CYP2C9, 104%; on CYP2D6, 91.3%; on CYP1A2, 92.6%; at CYP2C19, 56.6%. Besides, the Activity result in the series with Rattus norvegicus [5] and in the series on Rattus norvegicus [6] was “Active” throughout. Moreover, the IC50 in series [7] was 40 µM.

Take `CC(C)N1C(=O)c2ccc(-c3cc(-c4ccccc4F)no3)cc21`: the inhibition in series [3] amounted to 14.9%; in [1] it was 91.1%; in [2], 68%; in series [4], 18.3%. Moreover, the activity at 10 µM on CYP3A4 amounted to 120%; at CYP2C9 it was 32%; at CYP2D6 it was 57.1%; on CYP1A2, 98.7%; on CYP2C19 it was 33.2%. The Activity result in the series on Rattus norvegicus [5] and with Rattus norvegicus [6] was “inactive” in each case.

For the compound `NCC1(CC(=O)O)CCCCC1`, the Activity result with Rattus norvegicus [5] and with Rattus norvegicus [6] was “Active” in each case.

With `COc1ccc(-c2cc(-c3ccc4c(c3)N(C(C)C)C4=O)on2)cc1`, the inhibition is 13.6% in series [3], 2.44% in [1], 11.3% in [2] and 15.9% in series [4].

Consider `CC(C)N1C(=O)c2ccc(-c3cc(-c4ccc(F)cc4)no3)cc21`, for which the inhibition in series [3] stood at 1.82%; in series [1], 50.4%; in series [2] it was 12.8%; in [4], 34%.

For `Cc1c(-c2ccc(Cl)nc2)noc1-c1ccc2c(c1)CN(C(C)C)C2=O`, the inhibition was determined as 22.2% in [3], 56.9% in series [1], 47.1% in series [2] and 26.3% in series [4].

Regarding `CC(C)N1C(=O)c2ccc(-c3cc(-c4ccc(F)cc4F)no3)cc21`, the inhibition in [1] is 17.3%; in series [2], 11.7%.

As to `Cc1c(-c2ccc3c(c2)CN(C(C)C)C3=O)nnn1-c1ccc(F)cc1F`, the inhibition in series [1] came to 93.1%; in series [2], 92.5%. In addition, the Activity result in the series with Rattus norvegicus [5] and in the series on Rattus norvegicus [6] was “Active” in each case.

Consider `Cc1c(-c2ccc(F)cc2F)noc1-c1ccc2c(c1)CN(C(C)C)C2=O`, for which the inhibition is 7.95% in series [3], 87.6% in [1], 31.9% in [2] and 26.3% in [4]. Moreover, the activity at 10 µM at CYP3A4 is 98%; on CYP2C9 it was 2.55%; on CYP2D6 it was 104%; at CYP1A2, 89.6%; at CYP2C19, 59.2%.

For `CC(C)N1Cc2cc(-c3cc(-c4ccc(F)cc4F)no3)ccc2C1=O`, the inhibition is 17.7% in series [3], 36.5% in [1], 39.8% in series [2] and 13.4% in series [4].

On to `COc1ccc(-c2noc(-c3ccc4c(c3)CN(C(C)C)C4=O)c2C)cn1`, for which the inhibition in [3] turned out to be 33.5%; in series [1], 46.5%; in series [2] it was 49.1%; in series [4], 30.8%.

On to `CC(C)N1Cc2cc(-c3cc(-c4ccccc4F)no3)ccc2C1=O`, for which the inhibition in series [3] amounted to 21.9%; in series [1], 88.6%; in series [2], 56.3%; in series [4] it was 22.5%. Further, the activity at 10 µM was determined as 107% at CYP3A4; 39.8% on CYP2C9; 45.8% at CYP2D6; 42.5% on CYP1A2; 58.4% on CYP2C19.

Regarding `CC(C)N1C(=O)c2ccc(-c3cc(-c4ccc(Cl)cc4)no3)cc21`, the inhibition in series [3] was 12.2%; in series [1] it was 33.9%; in [2], 16.4%; in series [4], 10.3%.

Broadly, the inhibition is the percentage by which the read-out fell short of the control. By IC50 is commonly meant the midpoint of a concentration-inhibition curve. Read a high IC50 as weaker potency.
